# Measurements reported in ChEMBL document CHEMBL4765416, “Design, synthesis, and evaluation of pyrrolidine based CXCR4 antagonists with in vivo anti-tumor metastatic activity” (Eur J Med Chem, 2020).
# Activity calls are given as the source filed them. No cut-off for these calls is given here.
# Columns and labels:
# [1] = target: T1, C-X-C chemokine receptor type 4 (Homo sapiens, UniProt P61073); assay: Inhibition of APC-conjugated anti-human CXCR4 clone 12G5 binding to CXCR4 in human HPBALL cells measured after 3 hrs by FACS analysis; format: cell-based
# T1 sequence (P61073 whole entry): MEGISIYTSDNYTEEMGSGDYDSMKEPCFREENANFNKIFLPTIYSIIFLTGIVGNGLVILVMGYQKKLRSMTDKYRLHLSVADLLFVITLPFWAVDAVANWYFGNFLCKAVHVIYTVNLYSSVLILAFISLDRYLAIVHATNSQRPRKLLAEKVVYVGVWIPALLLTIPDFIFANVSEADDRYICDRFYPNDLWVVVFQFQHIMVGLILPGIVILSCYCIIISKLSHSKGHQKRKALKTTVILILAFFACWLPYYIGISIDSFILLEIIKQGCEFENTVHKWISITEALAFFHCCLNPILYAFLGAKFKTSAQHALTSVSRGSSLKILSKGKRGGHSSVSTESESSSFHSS
# [2] = Intrinsic clearance in rat liver microsomes at 1 uM peincubated for 10 mins followed by NADPH addition and measured 60 mins by LC-MS/MS analysis; format: ADME, Microsome; conditions: time 70 min, read-out: CLH
# [3] = Half life in rat liver microsomes at 1 uM peincubated for 10 mins followed by NADPH addition and measured 60 mins by LC-MS/MS analysis; format: ADME, Microsome; conditions: time 70 min
# [4] = target: T1, C-X-C chemokine receptor type 4; assay: Antagonist activity at CXCR4 in human MDA-MB-231 cells assessed as inhibition of CXCL12-induced cell migration at 100 nM measured after 24 hrs by crystal violet staining based matrigel invasion assay; conditions: filed as antagonist
# [5] = target: T1, C-X-C chemokine receptor type 4; assay: Antagonist activity at CXCR4 in human CD4-positive T cells assessed as inhibition of CXCL12-induced cytosolic calcium flux preincubated for 20 mins followed by CXCL12 addition by calcium 4 dye based FLIPR TETRA analysis; format: functional, cell-based, T cell
# [6] = Protein binding in mouse plasma at 1 uM; format: ADME, cell-free; conditions: read-out: PPB (converted)
# [7] = 1-Octanol/water partition coefficient, log P of compound at pH 7.4 measured after 24 hrs by shake flask method; format: physicochemical
# [8] = Dissociation constant, basic pKa of compound by titration method; format: physicochemical
# [9] = target: T2, C-X-C chemokine receptor type 1 (Homo sapiens) (UniProt P25024); assay: Antagonist activity at CXCR1 (unknown origin) expressed in HEK293 cells assessed as suppression of IL-8-induced inhibition of forskolin-induced cAMP formation up to 10 uM preincubated for 15 mins followed by forskolin and IL-8 stimulation and measured after 15 mins by cAMP-d2 and Eu-Anti-cAMP based fluorescence assay; format: functional, cell-based; conditions: dose microM <=10, time 30.0 min
# T2 sequence (whole entry): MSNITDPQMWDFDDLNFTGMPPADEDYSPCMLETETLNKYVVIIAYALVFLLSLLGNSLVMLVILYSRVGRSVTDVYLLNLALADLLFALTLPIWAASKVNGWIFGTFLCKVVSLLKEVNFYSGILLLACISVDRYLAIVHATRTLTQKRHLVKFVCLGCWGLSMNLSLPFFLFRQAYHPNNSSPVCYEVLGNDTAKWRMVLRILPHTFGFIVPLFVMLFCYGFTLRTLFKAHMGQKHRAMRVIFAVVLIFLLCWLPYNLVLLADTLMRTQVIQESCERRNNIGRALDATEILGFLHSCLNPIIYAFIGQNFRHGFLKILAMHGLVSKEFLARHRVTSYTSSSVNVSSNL
# [10] = target: T3, C-C chemokine receptor type 6 (Homo sapiens) (UniProt P51684); assay: Antagonist activity at CCR6 in human CD4-positive T cells assessed as inhibition of CCL20-induced cytosolic calcium flux up to 10 uM by calcium 4 dye based FLIPR TETRA analysis; format: functional; conditions: T cell, dose microM <=10
# T3 sequence (whole entry): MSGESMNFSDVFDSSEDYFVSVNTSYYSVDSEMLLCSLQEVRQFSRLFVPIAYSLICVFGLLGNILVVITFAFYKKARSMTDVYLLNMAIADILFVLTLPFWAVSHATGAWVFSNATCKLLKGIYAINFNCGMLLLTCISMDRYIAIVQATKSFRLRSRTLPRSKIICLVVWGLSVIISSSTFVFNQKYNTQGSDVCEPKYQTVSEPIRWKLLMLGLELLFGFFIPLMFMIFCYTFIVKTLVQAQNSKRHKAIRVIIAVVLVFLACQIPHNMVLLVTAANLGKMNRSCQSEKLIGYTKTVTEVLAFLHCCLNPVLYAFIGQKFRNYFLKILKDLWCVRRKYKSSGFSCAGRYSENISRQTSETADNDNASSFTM
# [11] = test system: L929; assay: Cytotoxicity against mouse L929 cells assessed as reduction in cell proliferation up to 1000 nM by ATP-based celltiter-glo luminescent assay
# [12] = test system: MEF; assay: Cytotoxicity against MEF cells assessed as reduction in cell proliferation up to 1000 nM by ATP-based celltiter-glo luminescent assay; conditions: mouse
# [13] = Cytotoxicity against […] Hepa1-6 cells assessed as reduction in cell proliferation up to 1000 nM by ATP-based celltiter-glo luminescent assay
# [14] = test system: MDA-MB-231; assay: Cytotoxicity against human MDA-MB-231 cells assessed as reduction in cell proliferation up to 1000 nM by ATP-based celltiter-glo luminescent assay
# [15] = target: T4, CYP1A2 (Homo sapiens, UniProt P05177); assay: Inhibition of CYP1A2 in human liver microsomes at 10 uM using phenacetin as substrate preincubated for 10 mins followed by NADPH addition measured after 10 mins by LC-MS/MS analysis relative to control; format: ADME; conditions: probe phenacetin, time 20 min
# T4 sequence (P05177 whole entry): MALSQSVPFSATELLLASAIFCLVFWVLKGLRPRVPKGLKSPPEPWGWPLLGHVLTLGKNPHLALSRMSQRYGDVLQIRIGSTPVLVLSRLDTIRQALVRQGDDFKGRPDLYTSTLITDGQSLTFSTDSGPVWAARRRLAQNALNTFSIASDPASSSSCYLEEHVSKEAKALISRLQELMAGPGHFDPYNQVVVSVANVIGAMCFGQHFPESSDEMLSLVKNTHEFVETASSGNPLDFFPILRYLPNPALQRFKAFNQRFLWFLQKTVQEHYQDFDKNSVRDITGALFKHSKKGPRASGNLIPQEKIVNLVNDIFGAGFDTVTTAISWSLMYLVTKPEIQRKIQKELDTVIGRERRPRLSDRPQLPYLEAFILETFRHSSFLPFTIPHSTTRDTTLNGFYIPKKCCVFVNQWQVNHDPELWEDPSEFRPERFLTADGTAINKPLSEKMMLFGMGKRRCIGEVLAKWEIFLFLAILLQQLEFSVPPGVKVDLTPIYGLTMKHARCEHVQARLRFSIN
# [16] = target: CYP2C9 (Homo sapiens, UniProt P11712); assay: Inhibition of CYP2C9 in human liver microsomes at 10 uM using tolbutamide as substrate preincubated for 10 mins followed by NADPH addition measured after 10 mins by LC-MS/MS analysis relative to control; format: ADME; conditions: probe tolbutamide
# Chain of CYP2C9 (P11712 whole entry): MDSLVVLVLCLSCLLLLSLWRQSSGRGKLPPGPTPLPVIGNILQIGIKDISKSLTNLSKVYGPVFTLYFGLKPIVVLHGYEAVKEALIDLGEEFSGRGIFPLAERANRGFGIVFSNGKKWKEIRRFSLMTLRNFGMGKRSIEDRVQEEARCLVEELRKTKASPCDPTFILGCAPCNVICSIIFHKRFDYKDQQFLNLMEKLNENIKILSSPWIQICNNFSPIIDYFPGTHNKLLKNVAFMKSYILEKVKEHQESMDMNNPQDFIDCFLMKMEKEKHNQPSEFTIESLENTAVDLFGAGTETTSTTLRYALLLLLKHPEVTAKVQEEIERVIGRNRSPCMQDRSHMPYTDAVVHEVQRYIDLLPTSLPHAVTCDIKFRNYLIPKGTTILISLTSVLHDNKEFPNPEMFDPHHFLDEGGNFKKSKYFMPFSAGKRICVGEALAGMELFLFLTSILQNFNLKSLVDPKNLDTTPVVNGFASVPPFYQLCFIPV
# [17] = target: CYP2C19 (Homo sapiens, UniProt P33261); assay: Inhibition of CYP2C19 in human liver microsomes at 10 uM using S-mephenytoin as substrate preincubated for 10 mins followed by NADPH addition measured after 10 mins by LC-MS/MS analysis relative to control; format: ADME; conditions: probe S-mephenytoin, time 20 min
# Chain of CYP2C19 (P33261 whole entry): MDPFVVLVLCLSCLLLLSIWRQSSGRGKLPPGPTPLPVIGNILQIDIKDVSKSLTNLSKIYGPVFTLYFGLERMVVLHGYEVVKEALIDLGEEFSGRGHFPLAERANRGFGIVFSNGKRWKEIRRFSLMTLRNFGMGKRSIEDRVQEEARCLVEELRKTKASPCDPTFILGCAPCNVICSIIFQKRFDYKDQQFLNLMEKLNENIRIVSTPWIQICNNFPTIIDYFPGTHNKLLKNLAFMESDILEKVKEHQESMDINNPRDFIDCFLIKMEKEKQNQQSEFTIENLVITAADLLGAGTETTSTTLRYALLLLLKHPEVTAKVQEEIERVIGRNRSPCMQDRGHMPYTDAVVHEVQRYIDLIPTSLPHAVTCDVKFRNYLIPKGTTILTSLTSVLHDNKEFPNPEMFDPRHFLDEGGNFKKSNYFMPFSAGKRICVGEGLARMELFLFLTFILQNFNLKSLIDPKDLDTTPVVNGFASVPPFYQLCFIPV
# [18] = target: CYP2D6 (Homo sapiens, UniProt P10635); assay: Inhibition of CYP2D6 in human liver microsomes at 10 uM using dextromethorphan as substrate preincubated for 10 mins followed by NADPH addition measured after 10 mins by LC-MS/MS analysis relative to control; format: ADME; conditions: probe dextromethorphan, time 20 min
# Chain of CYP2D6 (P10635 whole entry): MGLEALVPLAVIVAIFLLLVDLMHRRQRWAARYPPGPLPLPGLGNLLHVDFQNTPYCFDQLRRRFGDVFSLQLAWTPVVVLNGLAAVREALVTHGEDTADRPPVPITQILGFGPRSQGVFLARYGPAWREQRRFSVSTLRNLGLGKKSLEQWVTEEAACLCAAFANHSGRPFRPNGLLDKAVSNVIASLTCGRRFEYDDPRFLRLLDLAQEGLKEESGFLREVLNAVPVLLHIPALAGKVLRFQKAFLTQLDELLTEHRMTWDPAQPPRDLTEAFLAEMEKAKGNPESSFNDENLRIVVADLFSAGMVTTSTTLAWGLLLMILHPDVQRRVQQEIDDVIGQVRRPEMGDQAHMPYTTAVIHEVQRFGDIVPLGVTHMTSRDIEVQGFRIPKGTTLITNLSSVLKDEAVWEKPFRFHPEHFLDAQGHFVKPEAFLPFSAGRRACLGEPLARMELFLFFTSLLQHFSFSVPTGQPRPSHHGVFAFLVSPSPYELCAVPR
# [19] = target: T5, CYP3A4 (Homo sapiens, UniProt P08684); assay: Inhibition of CYP3A4 in human liver microsomes at 10 uM using midazolam as substrate preincubated for 10 mins followed by NADPH addition measured after 10 mins by LC-MS/MS analysis relative to control; format: ADME; conditions: probe midazolam, time 20 min
# T5 sequence (P08684 whole entry): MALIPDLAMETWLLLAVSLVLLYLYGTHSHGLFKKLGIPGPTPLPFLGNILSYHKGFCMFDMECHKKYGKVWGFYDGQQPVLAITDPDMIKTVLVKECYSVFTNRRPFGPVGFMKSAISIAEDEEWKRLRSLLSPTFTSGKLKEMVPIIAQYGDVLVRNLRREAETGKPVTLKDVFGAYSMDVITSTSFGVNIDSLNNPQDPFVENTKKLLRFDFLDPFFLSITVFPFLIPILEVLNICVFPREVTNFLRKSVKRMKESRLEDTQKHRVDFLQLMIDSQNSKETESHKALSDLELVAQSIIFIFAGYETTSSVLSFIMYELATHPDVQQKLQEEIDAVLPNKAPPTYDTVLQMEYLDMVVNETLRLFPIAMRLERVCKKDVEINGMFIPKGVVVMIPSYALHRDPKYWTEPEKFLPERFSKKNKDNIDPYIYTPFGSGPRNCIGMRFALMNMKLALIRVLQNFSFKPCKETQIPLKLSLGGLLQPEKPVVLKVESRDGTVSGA
# [20] = target: T5, CYP3A4; assay: Inhibition of CYP3A4 in human liver microsomes at 10 uM using testosterone as substrate preincubated for 10 mins followed by NADPH addition measured after 10 mins by LC-MS/MS analysis relative to control; format: ADME; conditions: probe testosterone, time 20 min
# [21] = target: Voltage-gated inwardly rectifying potassium channel KCNH2 (Homo sapiens, UniProt Q12809); assay: Inhibition of human ERG stably expressed in CHO cells at -80 mV holding potential measured after 4 mins by Qpatch electrophysiological assay; format: cell-based
# Chain of Voltage-gated inwardly rectifying potassium channel KCNH2 (Q12809 whole entry): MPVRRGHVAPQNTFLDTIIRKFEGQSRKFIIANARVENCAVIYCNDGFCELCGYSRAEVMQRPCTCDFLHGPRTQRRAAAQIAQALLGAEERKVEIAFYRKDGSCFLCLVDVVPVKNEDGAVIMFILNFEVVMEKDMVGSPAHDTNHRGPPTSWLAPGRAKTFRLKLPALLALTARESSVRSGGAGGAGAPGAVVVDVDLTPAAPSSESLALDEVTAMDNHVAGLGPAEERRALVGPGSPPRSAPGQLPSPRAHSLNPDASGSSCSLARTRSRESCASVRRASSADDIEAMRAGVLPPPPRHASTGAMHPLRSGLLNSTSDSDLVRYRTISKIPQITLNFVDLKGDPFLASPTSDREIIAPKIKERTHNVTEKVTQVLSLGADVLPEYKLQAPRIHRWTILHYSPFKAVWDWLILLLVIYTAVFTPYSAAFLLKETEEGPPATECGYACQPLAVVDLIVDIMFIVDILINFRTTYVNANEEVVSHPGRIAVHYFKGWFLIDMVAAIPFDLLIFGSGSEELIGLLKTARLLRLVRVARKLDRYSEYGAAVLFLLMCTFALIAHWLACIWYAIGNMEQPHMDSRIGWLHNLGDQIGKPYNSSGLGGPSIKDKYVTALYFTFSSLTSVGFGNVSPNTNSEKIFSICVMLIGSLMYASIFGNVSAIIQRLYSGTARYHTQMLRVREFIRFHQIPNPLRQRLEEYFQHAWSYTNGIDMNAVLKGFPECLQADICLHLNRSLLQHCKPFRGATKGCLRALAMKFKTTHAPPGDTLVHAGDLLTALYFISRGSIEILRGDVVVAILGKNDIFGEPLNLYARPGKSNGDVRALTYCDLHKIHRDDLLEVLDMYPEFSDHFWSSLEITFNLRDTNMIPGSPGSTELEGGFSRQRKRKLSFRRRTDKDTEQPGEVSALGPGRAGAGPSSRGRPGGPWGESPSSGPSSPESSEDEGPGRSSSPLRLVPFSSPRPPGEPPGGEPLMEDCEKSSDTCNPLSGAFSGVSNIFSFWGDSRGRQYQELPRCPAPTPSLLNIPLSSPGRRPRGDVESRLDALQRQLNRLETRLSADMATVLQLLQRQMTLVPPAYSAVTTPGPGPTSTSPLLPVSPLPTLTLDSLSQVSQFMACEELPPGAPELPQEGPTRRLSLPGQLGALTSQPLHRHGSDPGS
# [22] = Protein binding in rat plasma at 1 uM; format: ADME, cell-free; conditions: read-out: PPB (converted)
# [23] = Protein binding in human plasma at 1 uM; format: ADME, cell-free; conditions: read-out: PPB (converted)
# [24] = Intrinsic clearance in human liver microsomes at 1 uM peincubated for 10 mins followed by NADPH addition and measured 60 mins by LC-MS/MS analysis; format: ADME, Microsome; conditions: time 70 min, read-out: CLH
# [25] = Half life in human liver microsomes at 1 uM peincubated for 10 mins followed by NADPH addition and measured 60 mins by LC-MS/MS analysis; format: ADME, Microsome; conditions: time 70 min
# [26] = test system: Lewis lung carcinoma; assay: Antimetastatic activity against RFP-labelled LL2 cells allografted in C57BL6 mouse assessed as reduction in metastatic lung nodules at 70 mg/kg, ip treated 30 mins prior to tumor implantation followed by redosing at 3 hrs post tumor implantation and subsequent daily dosing for 18 days by fluorescence assay; format: functional, organism-based; conditions: time 18.0 day
smiles,measurement,setting,value
Cc1nc(CN2CCC[C@@H]2c2ccccn2)cc(N2CCN(C)CC2)n1,IC50,[1],> 10000 nM
CCN1CCN(c2cc(CN(C)[C@H]3CCCc4cccnc43)nc(C)n2)CC1,CLint scaled at 1 µM,[2],2180 mL/min/kg
same,half-life at 1 µM,[3],1.14 min
Cc1nc(CN(C)[C@H]2CCCc3cccnc32)cc(N2CCN(C)[C@@H](C)C2)n1,CLint scaled at 1 µM,[2],1550 mL/min/kg
same,half-life at 1 µM,[3],1.6 min
CN1CCN(c2cccc3nc(CN(C)[C@H]4CCCc5cccnc54)c(CO)n23)CC1,CLint scaled at 1 µM,[2],651 mL/min/kg
same,half-life at 1 µM,[3],3.82 min
Cc1nc(CN(C)[C@H]2CCCc3cccnc32)cc(N2CCN(C)[C@H](C)C2)n1,CLint scaled at 1 µM,[2],> 497 mL/min/kg
same,half-life at 1 µM,[3],< 1 min
Cc1nc(CN(C)[C@H]2CCCc3cccnc32)cc(N2CCN3CCC[C@H]3C2)n1,CLint scaled at 1 µM,[2],> 497 mL/min/kg
same,half-life at 1 µM,[3],< 1 min
c1cc(CN2CCCNCCNCCCNCC2)ccc1CN1CCCNCCNCCCNCC1,inhibition,[4],Active
Cc1nc(CN2CCC(C)C2c2ccccn2)cc(N2CCN(C)CC2)n1 (stereo unspecified),IC50,[1],1550 nM
Cc1nc(CN(C)[C@H]2CCCc3cccnc32)cc(N2C[C@@H](C)N(C)[C@@H](C)C2)n1,CLint scaled at 1 µM,[2],> 497 mL/min/kg
same,half-life at 1 µM,[3],< 1 min
Cc1nc(CN(C)C2CCCc3cccnc32)c(F)c(N2CCN(C)CC2)n1 (stereo unspecified),CLint scaled at 1 µM,[2],1080 mL/min/kg
same,half-life at 1 µM,[3],2.31 min
Cc1nc(CN2CCC[C@H]2c2ncccc2C)cc(N2CCCN(C)CC2)n1,IC50,[5],0.4 nM
CCc1nc(CN(C)C2CCCc3cccnc32)cc(N2CCN(C)CC2)n1 (stereo unspecified),CLint scaled at 1 µM,[2],2090 mL/min/kg
same,half-life at 1 µM,[3],1.19 min
Cc1nc(CN2CCC[C@H]2c2ccccn2)cc(N2CCN(C)CC2)n1,IC50,[1],220 nM
same,IC50,[5],2.7 nM
Cc1nc(CN(C)C2CCCc3cccnc32)c(C#N)c(N2CCN(C)CC2)n1 (stereo unspecified),CLint scaled at 1 µM,[2],1640 mL/min/kg
same,half-life at 1 µM,[3],1.51 min
Cc1nc(CN2CCC[C@H]2c2ncccc2C)cc(N2CCC(N(C)C)CC2)n1,IC50,[5],13 nM
Cc1nc(CN(C)[C@H]2CCCc3cccnc32)cc(N2CCN(C)CC2)n1,CLint scaled at 1 µM,[2],1570 mL/min/kg
same,half-life at 1 µM,[3],1.59 min
CCN(Cc1cc(N2CCN(C)CC2)nc(C)n1)C1CCCc2cccnc21 (stereo unspecified),CLint scaled at 1 µM,[2],1280 mL/min/kg
same,half-life at 1 µM,[3],1.95 min
Cc1nc(CN2CCCC2c2ccccn2)cc(N2CCN(C)CC2)n1 (stereo unspecified),IC50,[1],319 nM
Cc1nc(CN2CCCCC2c2ccccn2)cc(N2CCN(C)CC2)n1 (stereo unspecified),IC50,[1],620 nM
Cc1ccc([C@@H]2CCCN2Cc2cc(N3CCN(C)CC3)nc(C)n2)nc1,IC50,[5],4.9 nM
Cc1ccnc([C@@H]2CCCN2Cc2cc(N3CCN(C)CC3)nc(C)n2)c1,IC50,[1],216 nM
CN1CCN(c2cc(CN(C)C3CCCc4cccnc43)nc(C3CC3)n2)CC1 (stereo unspecified),CLint scaled at 1 µM,[2],2440 mL/min/kg
same,half-life at 1 µM,[3],1.02 min
COc1nc(CN(C)C2CCCc3cccnc32)cc(N2CCN(C)CC2)n1 (stereo unspecified),CLint scaled at 1 µM,[2],1130 mL/min/kg
same,half-life at 1 µM,[3],2.2 min
Cc1nc(CN2CCC[C@H]2c2ncccc2C)cc(N2CCN(C)CC2)n1,fraction unbound at 1 µM,[6],0.67
same,CLint scaled at 1 µM,[2],123 mL/min/kg
same,half-life at 1 µM,[3],20.2 min
same,IC50,[1],79 nM
same,IC50,[5],0.25 nM
same,logD at 24 h,[7],1.12
same,pKa,[8],8.2
same,inhibition,[9],inactive
same,inhibition,[10],inactive
same,inhibition,[4],Active
same,Activity,[11],Non-Toxic
same,Activity,[12],Non-Toxic
same,Activity,[13],Non-Toxic
same,Activity,[14],Non-Toxic
same,"inhibition at 10 min, 10 µM",[15],-6%
same,"inhibition at 10 min, 10 µM",[16],1%
same,"inhibition at 10 min, 10 µM",[17],11%
same,"inhibition at 10 min, 10 µM",[18],-5%
same,"inhibition at 10 min, 10 µM",[19],7%
same,"inhibition at 10 min, 10 µM",[20],-4%
same,IC50,[21],> 30000 nM
same,fraction unbound at 1 µM,[22],0.56
same,fraction unbound at 1 µM,[23],0.05
same,CLint scaled at 1 µM,[24],66 mL/min/kg
same,half-life at 1 µM,[25],26.2 min
same,Activity,[26],Active
Cc1cccc([C@@H]2CCCN2Cc2cc(N3CCN(C)CC3)nc(C)n2)n1,IC50,[1],2390 nM
CN1CCN(c2cc(CN(C)C3CCCc4cccnc43)nc(N)n2)CC1 (stereo unspecified),CLint scaled at 1 µM,[2],767 mL/min/kg
same,half-life at 1 µM,[3],3.24 min
